Data taken from patent US10365269B2, “System and methods for detecting ribosome inhibition” (priority 2015, dated 2019).
Entries after “also recorded” stand apart in the source; their conditions may differ.

Experiments:
Format in all cases: cell-based
O-ribosome [1] = assay: O-ribosome inhibition fluorescence assay in E. coli SH399 (pSH6-KF, pRRSH2-A1408G); conditions: for fluorescence at drug concentrations beyond those that give the peak response / relative ribosome inhibition activity (rank among ten compounds): E. coli SH399; for detection of O-ribosome inhibition (fluorescence signal): E. coli SH399, A1408G 16S rRNA, aminoglycoside 0-500 μM, 48 h; for dose-dependent fluorescence response pattern: E. coli SH399, increasing aminoglycoside concentrations; for relative ribosome inhibition activity (rank among ten compounds): printed order: sisomicin, gentamicins, neomycin B, paromomycin, tobramycin, amikacin, ribostamycin, apramycin, kanamycin A, neamine
Experimental: (§1) All cell density and fluorescence measurements were taken in triplicate. 96-well culture plates (1 mL LB per well) with appropriate concentrations of necessary antibiotics and aminoglycoside were inoculated 1:100 from a saturated overnight liquid culture and allowed to grow for 48 hours at 37° C., 200 rpm shaking. For cell density assays, 40 μL of sample was taken from each well, diluted 5-fold, and OD600 was measured by microplate reader. The OD600 of the original culture was calculated by multiplying the reading by the dilution factor (Melançon et al., 2009, Bioorg. Med. Chem. Lett. 19:3845-3847). For cell pellet fluorescence imaging, cells were pelleted by centrifugation (4,000×g, 15 minutes, 4° C.) and the supernatant was decanted completely. The underside of the plate was illuminated at 365 nm using an ultraviolet handheld lamp and photgraphed with an 8 megapixel digital camera. For fluorescence quantification, cell pellets were resuspended in 1 mL of ¼×Ringer's solution (30.75 mM NaCl, 1.2 mM, KCl, 1.5 mM CaCl2, pH 7.3-7.4), 200 μL of cells from each well were transferred to black 96-well plates, and GFP fluorescence was measured (excitation=395 nm, bandwidth=9 nm; emission=509 nm, bandwidth=15 nm). Fluorescence intensities were calculated as fluorescence/OD600 of the sample minus fluorescence/OD600 of a sample of a non-GFP-expressing E. coli strain parental to the strain being analyzed in order to correct for both cell density and E. coli auto-fluorescence.
Dose-dependent fluorescence responses by E. coli SH399 was observed when treated with five of these compounds as determined by plate reader fluorescence assays (see section 1.6 for experimental details). (FIG. 4A and FIG. 20).

E. coli SH431 = assay: Cell density (OD600) growth assay of E. coli SH431
Experimental: as §1
To extend the approach to a system with a different aminoglycoside resistance mutation, prrnC-sacB was replaced with pRRSH2-U1406A (see Section 2.2.2 for vector construction) in E. coli SQ380 (E. coli SH424), which was then transformed with pSH6-KF, resulting in the detection strain E. coli SH431. […] Dose-dependent fluorescence responses by E. coli SH431 were observed when treated with four of these compounds as determined by plate reader fluorescence assays (see section 1.6 for experimental details), including two to which E. coli SH399 was not resistant and therefore could not produce a response. […]

E. coli SH399 = assay: Cell density (OD600) growth assay of E. coli SH399; conditions: E. coli SH399, concentrations beyond peak fluorescence response
Experimental: as §1, with “The underside of the plate was illuminated at 365 nm using an ultraviolet handheld lamp and photgraphed with an 8 megapixel digital camera.” left out, “auto-fluorescence. […]” for “auto-fluorescence.”

O-ribosome [2] = assay: O-ribosome inhibition fluorescence assay in E. coli SH431 (pSH6-KF, pRRSH2-U1406A); conditions: for detection of O-ribosome inhibition (fluorescence signal): E. coli SH431, U1406A 16S rRNA, aminoglycoside 0-500 μM; for relative potency as ribosome inhibitor (rank among four compounds): printed order: gentamicins, G418 and hygromycin B, kanamycin A
Experimental: as §1
To extend the approach to a system with a different aminoglycoside resistance mutation, prrnC-sacB was replaced with pRRSH2-U1406A (see Section 2.2.2 for vector construction) in E. coli SQ380 (E. coli SH424), which was then transformed with pSH6-KF, resulting in the detection strain E. coli SH431. E. coli SH431 was used to conduct ribosome inhibition assays identical to those performed with E. coli SH399. Dose-dependent fluorescence responses by E. coli SH431 were observed when treated with four of these compounds as determined by plate reader fluorescence assays (see section 1.6 for experimental details), including two to which E. coli SH399 was not resistant and therefore could not produce a response. (FIG. 4B and FIG. 20).

TetR = target: T1, TetR (Escherichia coli, UniProt P04483); assay: Recovery of GFPuv fluorescence in E. coli DH5α containing pSH3-KF; conditions: saturating ATC
T1 construct: expressed in transfected cells; host or cells: E. coli DH5α transformed with pSH3-KF (tetR amplified from pSR26_2)
T1 sequence (P04483 whole entry): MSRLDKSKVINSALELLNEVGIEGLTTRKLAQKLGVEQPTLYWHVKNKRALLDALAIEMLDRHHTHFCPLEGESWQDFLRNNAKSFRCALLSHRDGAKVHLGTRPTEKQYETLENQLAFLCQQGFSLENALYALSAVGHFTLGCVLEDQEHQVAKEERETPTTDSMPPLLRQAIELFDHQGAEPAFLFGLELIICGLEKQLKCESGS
Experimental: as §1, with “The underside of the plate was illuminated at 365 nm using an ultraviolet handheld lamp and photgraphed with an 8 megapixel digital camera.” left out, “auto-fluorescence. […]” for “auto-fluorescence.”

O-ribosome [3] = assay: Ribosome inhibition fluorescence assay in E. coli SH391 (SH386 with pSH3-KF); conditions: E. coli SH391, kanamycin 0-500 μM
Experimental: as §1, with “The underside of the plate was illuminated at 365 nm using an ultraviolet handheld lamp and photgraphed with an 8 megapixel digital camera.” left out

E. coli SH430 = assay: Cell viability (OD600) assay of E. coli SH430 (pRRSH2, wild-type 16S rRNA)
Text: (§2) E. coli SQ380 was transformed with pRRSH2-A1408G; and prrnC-sacB was removed by sucrose counterselection, resulting in E. coli SH386. As a control, E. coli SQ380 was also transformed with pRRSH2; and prrnC-sacB was removed by sucrose counterselection, resulting in E. coli SH430.

E. coli SH386 = assay: Cell viability (OD600) assay of E. coli SH386 (pRRSH2-A1408G)
Text: as §2

E. coli SH434 = assay: Growth inhibition assay of aminoglycoside-sensitive E. coli SH434 (pSH6-KF, pRRSH2)
Experimental: as §1, with “The underside of the plate was illuminated at 365 nm using an ultraviolet handheld lamp and photgraphed with an 8 megapixel digital camera.” left out, “auto-fluorescence. […]” for “auto-fluorescence.”

Compound	fluorescence at drug concentrations beyond those that give the peak response (O-ribosome [1])	detection of O-ribosome inhibition (fluorescence signal) (O-ribosome [1])	dose-dependent fluorescence response pattern (O-ribosome [1])	resistance of SH431 conferred by the U1406A mutation (E. coli SH431)	detection of O-ribosome inhibition (fluorescence signal) (O-ribosome [2])	further results
NC[C@@H]1O[C@H](O[C@H]2[C@@H](O)[C@H](O[C@@H]3[C@@H](O)[C@H](N)C[C@H](N)[C@H]3O[C@H]3O[C@H](CO)[C@@H](O)[C@H](O)[C@H]3N)O[C@@H]2CO)[C@H](N)[C@@H](O)[C@@H]1O [paromomycin]	fluorescence decreases significantly	able to detect O-ribosome inhibition	robust fluorescence responses at low concentrations	inability of the U1406A mutation to confer resistance	lack of signal	growth inhibition accompanying the decrease in fluorescence (E. coli SH399): accompanied by growth inhibition
CN[C@@H]1[C@@H](O)[C@@H](O[C@@H]2[C@@H](O)[C@H](O[C@H]3OC(CN)=CC[C@H]3N)[C@@H](N)C[C@H]2N)OC[C@]1(C)O [sisomicin]	–	–	–	–	–	relative ribosome inhibition activity (rank among ten compounds) (O-ribosome [1]): strongest ribosome inhibition activity
Cc1c2c(c(O)c3c(O)cccc13)C(=O)[C@]1(O)C(=O)C(C(N)=O)=C(O)[C@@H](N(C)C)[C@@H]1C2 [anhydrotetracycline]	–	–	–	–	–	fluorescence level relative to the gfp-uv/tetR-expressing strain (TetR): 106.6%±1.2%
NC[C@@H]1O[C@H](O[C@H]2[C@@H](O)[C@H](O[C@@H]3[C@@H](O)[C@H](N)C[C@H](N)[C@H]3O[C@H]3O[C@H](CN)[C@@H](O)[C@H](O)[C@H]3N)O[C@@H]2CO)[C@H](N)[C@@H](O)[C@@H]1O [neomycin, neomycin B]	fluorescence decreases significantly	able to detect O-ribosome inhibition	robust fluorescence responses at low concentrations	inability of the U1406A mutation to confer resistance	lack of signal	–
NC[C@H]1O[C@H](O[C@H]2[C@H](O)[C@@H](O[C@H]3O[C@H](CO)[C@@H](O)[C@H](N)[C@H]3O)[C@H](N)C[C@@H]2N)[C@H](O)[C@@H](O)[C@@H]1O [kanamycin, kanamycin A]	–	able to detect O-ribosome inhibition	robust dose-dependent increase in fluorescence; also recorded: more gradual dose-dependent fluorescence increases	–	able to detect O-ribosome inhibition	increase in fluorescence (O-ribosome [3]): ~50%; maximum induction of fluorescence (O-ribosome [3]; strong background fluorescence): 1.6 fold; growth inhibition (E. coli SH430; E. coli SH430, 10 μM kanamycin, 24 hours): significant growth inhibition; concentrations at which the strain cannot survive (E. coli SH430; E. coli SH430, 24 hours): above 10 μM; relative potency as ribosome inhibitor (rank among four compounds) (O-ribosome [2]; E. coli SH431): least potent; concentration up to which the strain is resistant (highest concentration tested) (E. coli SH386; E. coli SH386, A1408G): up to 500 μM; growth inhibition (E. coli SH386; E. coli SH386, any kanamycin concentration tested (up to 500 μM), 24 hours): no growth inhibition
CN[C@@H]1[C@@H](O[C@H]2O[C@H](CO)[C@@H](N)[C@H](O)[C@H]2O)OC2C[C@@H](N)[C@@H](O[C@H]3[C@H](O)[C@@H](O)[C@H](N)C[C@@H]3N)OC2[C@@H]1O (stereo partly drawn) [apramycin]	–	able to detect O-ribosome inhibition	more gradual dose-dependent fluorescence increases	inability of the U1406A mutation to confer resistance	lack of signal	–
NC[C@H]1O[C@H](O[C@H]2[C@H](O)[C@@H](O)[C@H](N)C[C@@H]2N)[C@H](N)[C@@H](O)[C@@H]1O [neamine]	–	–	–	–	–	relative ribosome inhibition activity (rank among ten compounds) (O-ribosome [1]; listed as Neamine): very weak; growth inhibition activity (E. coli SH434): very weak
gentamicin [gentamicins]	fluorescence decreases significantly	able to detect O-ribosome inhibition	robust fluorescence responses at low concentrations	–	able to detect O-ribosome inhibition	growth inhibition accompanying the decrease in fluorescence (E. coli SH399): accompanied by growth inhibition; response at higher concentrations (O-ribosome [2]; E. coli SH431): Dose-dependent decreases in response; relative potency as ribosome inhibitor (rank among four compounds) (O-ribosome [2]; E. coli SH431): most potent ribosome inhibitors
